Reference: US11716992B2, “5A5B6C tricyclic spirolactone derivative, preparation method therefor and use thereof” (NANKAI UNIVERSITY, priority 2017, dated 2023)
Values joined by “and” are separate entries in the source; they are usually repeats but may differ in a detail not shown here. Identical values can stand only once. Like-named read-outs stand apart in the source and are kept apart here.

Tests used:
[1] = system: Helicoverpa armigera (Hübner); experiment: Insecticidal activity against Helicoverpa armigera (Hübner); type: in vivo; settings: Helicoverpa armigera; 100 μg/mL; read-out: insecticidal activity, Helicoverpa armigera (Hübner)
Caenorhabditis elegans = experiment: Insecticidal activity against Caenorhabditis elegans; type: in vivo; settings: Caenorhabditis elegans, 100 μg/mL; read-out: insecticidal activity, Caenorhabditis elegans
Ostrinia furnacalis = experiment: Insecticidal activity against Ostrinia furnacalis; type: in vivo; settings: Ostrinia furnacalis; 100 μg/mL; read-out: insecticidal activity, Ostrinia furnacalis
[2] = system: Apis mellifera ligustica Spin; settings: for Death number after 24 h / Death number after 48 h: per replicate of 10 bees
[3] = system: Mythimna separate (Walker); experiment: Insecticidal activity against Mythimna separate (Walker); type: in vivo; settings: Mythimna, 100 μg/mL; read-out: insecticidal activity, Mythimna separate (Walker)
Cercospora arachidicola = experiment: Fungicidal activity, fungicide growth rate method, CA; type: cell-based; settings: Mycosphaerella arachidis, read-out: fungicidal activity (growth inhibition rate), CA
Physalospora piricola = experiment: Fungicidal activity, fungicide growth rate method, PP; type: cell-based; settings: read-out: fungicidal activity (growth inhibition rate), PP
wheat Gibberella zeae = experiment: microbe, parasite or virus in culture; type: cell-based; settings: Fusarium graminearum, read-out: fungicidal activity (growth inhibition rate), GZ, 50 μg/mL
Pellicularia sasakii = experiment: Fungicidal activity, fungicide growth rate method, PS; type: cell-based; settings: read-out: fungicidal activity (growth inhibition rate), PS
Botrytis cinerea = experiment: Fungicidal activity, fungicide growth rate method, BC; type: cell-based; settings: Botrytis cinerea, read-out: fungicidal activity (growth inhibition rate), BC
Rhizoctonia cerealis = experiment: Fungicidal activity, fungicide growth rate method, RC; type: cell-based; settings: for inhibition at 50 µg/mL: Ceratobasidium cereale, read-out: fungicidal activity (growth inhibition rate), RC
Alternaria solani = experiment: Fungicidal activity, fungicide growth rate method, AS; type: cell-based; settings: Alternaria solani, read-out: fungicidal activity (growth inhibition rate), AS
[4] = system: Phytophthora infestans (Mont.) de Bary; experiment: microbe, parasite or virus in culture; type: cell-based; settings: Phytophthora infestans, read-out: fungicidal activity (growth inhibition rate), PI, 50 μg/mL

C=CC[C@@H]1C[C@]2(OC(C)=O)C[C@@H](OC(C)=O)O[C@@]23C[C@H]2O[C@H]2C[C@H]13 [Zyj07-65-1]
pest or weed control at 100 µg/mL [1]: 10%
pest or weed control at 100 µg/mL (Caenorhabditis elegans): 12%
pest or weed control at 100 µg/mL (Ostrinia furnacalis): 5%
Death rate after 48 h (%) ([2]; dosage 7.54 μg a.i./bee): 10.0%
Death number after 24 h ([2]; dosage 7.54 μg a.i./bee): 0 and 1
Death number after 48 h ([2]; dosage 7.54 μg a.i./bee): 0 and 2
Death rate after 48 h (%) ([2]; dosage 18.1 μg a.i./bee): 10.0%
Death number after 24 h ([2]; dosage 18.1 μg a.i./bee): 0 and 1
Death number after 48 h ([2]; dosage 18.1 μg a.i./bee): 0 and 2
pest or weed control at 100 µg/mL [3]: 25%

C=CC[C@@H]1C[C@]2(O)CCO[C@@]23CC=CC[C@H]13 [Zyj07-30]
inhibition at 50 µg/mL (Cercospora arachidicola; 50 μg/mL): 14%
inhibition at 50 µg/mL (Physalospora piricola; 50 μg/mL): 0%
inhibition at 50 µg/mL (wheat Gibberella zeae): 3%
inhibition at 50 µg/mL (Pellicularia sasakii; 50 μg/mL): 27%
inhibition at 50 µg/mL (Botrytis cinerea; 50 μg/mL): 39%
pest or weed control at 100 µg/mL [1]: 0%
pest or weed control at 100 µg/mL (Caenorhabditis elegans): 7%
pest or weed control at 100 µg/mL (Ostrinia furnacalis): 0%
inhibition at 50 µg/mL (Rhizoctonia cerealis; 50 μg/mL): 13%
inhibition at 50 µg/mL (Alternaria solani; 50 μg/mL): 0%
inhibition at 50 µg/mL [4]: 15%
Death rate after 48 h (%) ([2]; dosage 9.77 μg a.i./bee): 15.0%
Death number after 24 h ([2]; dosage 9.77 μg a.i./bee): 0
Death number after 48 h ([2]; dosage 9.77 μg a.i./bee): 1 and 2
Death rate after 48 h (%) ([2]; dosage 19.8 μg a.i./bee): 5.0%
Death number after 24 h ([2]; dosage 19.8 μg a.i./bee): 0
Death number after 48 h ([2]; dosage 19.8 μg a.i./bee): 1 and 0
pest or weed control at 100 µg/mL [3]: 0%

C[Si](C)(C)O[C@]12CC=CC[C@@H]1C=CC2=O [Zyj06-82]
inhibition at 50 µg/mL (Cercospora arachidicola): 24%
inhibition at 50 µg/mL (Physalospora piricola): 40%
inhibition at 50 µg/mL (wheat Gibberella zeae): 0%
inhibition at 50 µg/mL (Pellicularia sasakii): 23%
inhibition at 50 µg/mL (Botrytis cinerea): > 50%
pest or weed control at 100 µg/mL [1]: 5%
pest or weed control at 100 µg/mL (Caenorhabditis elegans): 8%
pest or weed control at 100 µg/mL (Ostrinia furnacalis): 5%
inhibition at 50 µg/mL (Rhizoctonia cerealis): 43%
inhibition at 50 µg/mL (Alternaria solani): 14%
inhibition at 50 µg/mL [4]: 16%
pest or weed control at 100 µg/mL [3]: 25%

O=C1C[C@@]2(O)CC[C@H]3C[C@@H](O)[C@@H](Cl)C[C@@]32O1 [Zyj07-103]
inhibition at 50 µg/mL (Cercospora arachidicola; 50 μg/mL): 38%
inhibition at 50 µg/mL (Physalospora piricola; 50 μg/mL): > 50%
inhibition at 50 µg/mL (wheat Gibberella zeae): 47%
inhibition at 50 µg/mL (Pellicularia sasakii; 50 μg/mL): 0%
inhibition at 50 µg/mL (Botrytis cinerea; 50 μg/mL): 27%
pest or weed control at 100 µg/mL [1]: 15%
pest or weed control at 100 µg/mL (Ostrinia furnacalis): 10%
inhibition at 50 µg/mL (Rhizoctonia cerealis; 50 μg/mL): 4%
inhibition at 50 µg/mL [4]: 42%
pest or weed control at 100 µg/mL [3]: > 30%

C=CC[C@@H]1C[C@]2(O)CC(O)O[C@@]23CC=CC[C@H]13 (some centres unmarked) [Zyj07-29]
inhibition at 50 µg/mL (Cercospora arachidicola; 50 μg/mL): 5%
inhibition at 50 µg/mL (Physalospora piricola; 50 μg/mL): 45%
inhibition at 50 µg/mL (wheat Gibberella zeae): 7%
inhibition at 50 µg/mL (Pellicularia sasakii; 50 μg/mL): 0%
inhibition at 50 µg/mL (Botrytis cinerea; 50 μg/mL): 27%
pest or weed control at 100 µg/mL [1]: 15%
pest or weed control at 100 µg/mL (Caenorhabditis elegans): > 30%
pest or weed control at 100 µg/mL (Ostrinia furnacalis): 10%
inhibition at 50 µg/mL (Rhizoctonia cerealis; 50 μg/mL): 0%
inhibition at 50 µg/mL (Alternaria solani; 50 μg/mL): 0%
inhibition at 50 µg/mL [4]: 25%
Death rate after 48 h (%) ([2]; dosage 3.68 μg a.i./bee): 5.0%
Death number after 24 h ([2]; dosage 3.68 μg a.i./bee): 0
Death number after 48 h ([2]; dosage 3.68 μg a.i./bee): 0 and 1
Death rate after 48 h (%) ([2]; dosage 4.39 μg a.i./bee): 0%
Death number after 24 h ([2]; dosage 4.39 μg a.i./bee): 0
Death number after 48 h ([2]; dosage 4.39 μg a.i./bee): 0
pest or weed control at 100 µg/mL [3]: > 30%

C=CC[C@@H]1C[C@@]2(O)C[C@@H](CC=C)[C@H]3CC[C@@H](O)C[C@@]32O1 [Zyj07-69]
pest or weed control at 100 µg/mL [1]: 15%
pest or weed control at 100 µg/mL (Caenorhabditis elegans): 10%
pest or weed control at 100 µg/mL (Ostrinia furnacalis): 10%
Death rate after 48 h (%) ([2]; dosage 9.71 μg a.i./bee): 5.0%
Death number after 24 h ([2]; dosage 9.71 μg a.i./bee): 0
Death number after 48 h ([2]; dosage 9.71 μg a.i./bee): 0 and 1
pest or weed control at 100 µg/mL [3]: 25%

O=C1CCC23CC=CCC12O3 (centres unmarked) [Zyj06-39]
inhibition at 50 µg/mL (Botrytis cinerea; 50 μg/mL): 36%
pest or weed control at 100 µg/mL [1]: 0%
pest or weed control at 100 µg/mL (Caenorhabditis elegans): > 30%
pest or weed control at 100 µg/mL (Ostrinia furnacalis): 0%
fungicidal activity (growth inhibition rate), RC (Rhizoctonia cerealis; 50 μg/mL): 93%
inhibition at 50 µg/mL (Alternaria solani; 50 μg/mL): > 60%
inhibition at 50 µg/mL [4]: 27%
pest or weed control at 100 µg/mL [3]: 10%
